Data as given in patent publication US12202816B2 (CALLIDITAS THERAPEUTICS SUISSE SA, priority 2018, dated 2025).

Target: hNOX enzymes
Assay: ROS production measurement on hNOX membranes (Amplex Red fluorescence assay, assay 1)
Assay type: biochemical, human
Conditions: membranes from CHO or HEK cells overexpressing hNox enzymes; Nox isoform not stated; non linear regression; read-out: Nox inhibitory constant Ki
Protocol: Reactive oxygen species (ROS) production generated by hNOX enzymes was measured by fluorescence in both cellular and membrane-based assays using the Amplex® Red reagent. In the presence of horseradish peroxidase (HRP), the Amplex® Red reagent (10-acetyl-3,7-dihydroxyphenoxazine, AR), which is a colorless and nonfluorescent derivative of dihydroresorufin, reacts with H2O2 with a 1:1 stoichiometry to produce highly fluorescent resorufin at an excitation and emission wavelengths of 544 nm and 590 nm, respectively.
Membranes from CHO or HEK cells overexpressing hNox enzymes were prepared as previously described (Palicz et al., 2001, J. Biol. Chem, 76, 3090). After resuspension in sonication buffer (11% sucrose, 120 mM NaCl, 1 mM EGTA in PBS, pH 7.4), cells were broken by sonication and centrifuged (200 g, 10 min). The supernatant was layered onto a 17/40% (w/v) discontinuous sucrose gradient and centrifuged (150,000 g for 30 min). Membrane fractions were collected from the 17/40% interface, aliquoted in 10 μl samples and were stored at −80° C. Protein concentration was determined with Bradford reagent. Flavin Adenine Dinucleotide (FAD) (catalog #F6625-500MG), MgCl2 (catalog #M8266-100G), Phosphatidic Acid (PA) (catalog #P3591-50MG) were purchased from Sigma-Aldrich. Horseradish peroxidase (HRP) (catalog #10108090001) was purchased from Roche. NADPH (catalog #A1395, 0500) was purchased from Applichem. Amplex red (AR) (catalog #A22177) was purchased from Invitrogen. 96 well polypropylene and black plates were purchased from Milian (catalog #055529 and #055218, respectively). FLUOstar OPTIMA microplate reader was supplied by BMG Labtech (Germany). Zephyr® Compact Liquid Handling Workstation was supplied by PerkinElmer (Germany).
Assay 1: ROS Production Measurement on hNOX Membranes
All Solutions were placed on ice and protected from light. The final concentration in the 1× hNOX membrane fluorescent assay buffer were PBS pH7, 6 μM FAD, 15 μM PA, 1 mM MgCl2, 12.5 μM AR, 0.02 u/ml, 125 ng membranes, 1.5 μg of cofactors and 30 μM NADPH. The NADPH was dissolved in water at a concentration of 12 mM and was transferred in a metal transfer plate kept at 4° C. The NADPH was added to the assay plate to initiate the reaction just before the measurement.
Serial dilution (1:3, 10 serial dilution) of the compounds was performed in 100% DMSO in 96 well polypropylene plate—Row B—H Column 1-10, Row A, Column 1-10 contained reference compound. Starting concentration was 10^−2 M (10 mM). Final concentration in assay was 10^−4 M (100 μM). Compounds were diluted twice in PBS buffer by transferring 30 μl/well of PBS into 30 μl/well compounds sample in DMSO using Zephyr® Compact Liquid Handling Workstation. Control wells-columns 1 and 12-contained 60 μl DMSO in 50% PBS pH7.
Reaction mixture is dispensed using Zephyr® Compact Liquid Handling Workstation. 90 μl of mix with membrane were dispensed into 96 well black plates—Column 2-11, Column 1 Row A-D, Column 12 Row E-H. 90 μl of control mix were dispensed into assay plate—Column 1 Row E-H, Column 12 Row A-D, which are wells for measuring background signal. 2 μl of compounds were dispensed into each well of assay plate using Zephyr® Compact Liquid Handling Workstation. The reaction mixture with compounds was incubated in assay plates for 20 min at 37° C. in a Titramax microplate incubator with gentle agitation. 10 μl of NADPH is dispensed to the assay plate. Fluorescence reading was recorded with the FLUOstar OPTIMA microplate reader for 10 min at 37° C. (8 cycles, 1 cycle duration 55 sec).
The Table 14 below summarizes the inhibition of NOX activity as measured by the above described assay 1 and expressed by their inhibitory constant calculated by non linear regression analysis using GraphPad Prism Software (GraphPad Software Co., San Diego, CA): […]

SMILES | Ki [nM]
COc1cc(-c2ccc3[nH]c(-c4ccnc(C)c4)cc3c2)ccn1 [Example 1, 5-(2-methoxypyridin-4-yl)-2-(2-methylpyridin-4-yl)-1H-indole] | 486
Cc1cc(-c2cc3cc(-c4ccnc(N)c4)ccc3[nH]2)ccn1 [Example 5, 4-(2-(2-methylpyridin-4-yl)-1H-indol-5-yl)pyridin-2-amine] | 348
Cc1cc(-c2cc3cc(-c4cncc(F)c4)ccc3[nH]2)ccn1 [Example 6, 5-(5-fluoropyridin-3-yl)-2-(2-methylpyridin-4-yl)-1H-indole] | 750
Cc1cc(-c2cc3cc(-c4cncc(N(C)C)c4)ccc3[nH]2)ccn1 [Example 9, N,N-dimethyl-5-(2-(2-methylpyridin-4-yl)-1H-indol-5-yl)pyridin-3-amine] | 805
Cc1cc(-c2cc3cc(-c4ccc5[nH]c(C)nc5c4)ccc3[nH]2)ccn1 [Example 12, 2-methyl-5-(2-(2-methylpyridin-4-yl)-1H-indol-5-yl)-1H-benzo[d]imidazole] | 590
COc1cncc(-c2ccc3[nH]c(-c4ccnc(N5CCC5)c4)cc3c2)c1 [Example 13, 2-(2-(azetidin-1-yl)pyridin-4-yl)-5-(5-methoxypyridin-3-yl)-1H-indole] | 315
COc1cncc(-c2ccc3[nH]c(-c4ccnc(OC)c4)cc3c2)c1 [Example 14, 5-(5-methoxypyridin-3-yl)-2-(2-methoxypyridin-4-yl)-1H-indole] | 41
COc1cncc(-c2ccc3[nH]c(-c4ccnc(C)n4)cc3c2)c1 [Example 16, 5-(5-methoxypyridin-3-yl)-2-(2-methylpyrimidin-4-yl)-1H-indole] | 666
COc1cncc(-c2ccc3[nH]c(-c4csc(C)n4)cc3c2)c1 [Example 18, 4-(5-(5-methoxypyridin-3-yl)-1H-indol-2-yl)-2-methylthiazole] | 958
COc1cncc(-c2ccc3[nH]c(-c4ccnc(C5CC5)c4)cc3c2)c1 [Example 19, 2-(2-cyclopropylpyridin-4-yl)-5-(5-methoxypyridin-3-yl)-1H-indole] | 231
COc1cncc(-c2ccc3[nH]c(-c4ccnc(N5CC(O)C5)c4)cc3c2)c1 [Example 20, 1-(4-(5-(5-methoxypyridin-3-yl)-1H-indol-2-yl)pyridin-2-yl)azetidin-3-ol] | 158
COc1cncc(-c2ccc3[nH]c(-c4ccnc(N5CCOCC5)c4)cc3c2)c1 [Example 23] | 296
COc1cncc(-c2ccc3[nH]c(-c4cncc(F)c4)cc3c2)c1 [Example 24, 2-(5-fluoropyridin-3-yl)-5-(5-methoxypyridin-3-yl)-1H-indole] | 311
Cc1cc(-c2ccc3[nH]c(-c4ccc(N5CCOCC5)nc4)cc3c2)ccn1 [Example 26] | 221
COc1cncc(-c2ccc3[nH]c(-c4ccc(C5COC5)nc4)cc3c2)c1 [Example 27, 5-(5-methoxypyridin-3-yl)-2-(6-(oxetan-3-yl)pyridin-3-yl)-1H-indole] | 147
Cc1cc(-c2ccc3[nH]c(-c4ccc(N(C)C)nc4)cc3c2)ccn1 [Example 29, N,N-dimethyl-5-(5-(2-methylpyridin-4-yl)-1H-indol-2-yl)pyridin-2-amine] | 206
COc1cncc(-c2cc3cc(-c4ccc(N5CCC56COC6)nc4)[nH]c3cc2Cl)c1 [Example 32, 1-(5-(6-chloro-5-(5-methoxypyridin-3-yl)-1H-indol-2-yl)pyridin-2-yl)-6-oxa-1-azaspiro[3.3]heptane] | 27
COc1cncc(-c2cc3cc(-c4ccnc(N5CCC56COC6)c4)[nH]c3cc2Cl)c1 [Example 33, 1-(4-(6-chloro-5-(5-methoxypyridin-3-yl)-1H-indol-2-yl)pyridin-2-yl)-6-oxa-1-azaspiro[3.3]heptane] | 36
Cc1cc(-c2cc3cc(-c4ccnc(N5CCC56COC6)c4)[nH]c3cc2Cl)ccn1 [Example 34, 1-(4-(6-chloro-5-(2-methylpyridin-4-yl)-1H-indol-2-yl)pyridin-2-yl)-6-oxa-1-azaspiro[3.3]heptane] | 94
